Laboratory results published in US10385065B2, “Antibacterial compounds” (priority 2014, dated 2019).
Converted amounts (≈) assume the structure as drawn. Where two headings read alike, the source gives them in different places.

Columns and labels:
Assay type in all cases: cell-based
[1] = system: human hepatic cell line (HepG2 ATCC HB-8065); test: Human cell viability assay (CellTiter-Glo), HepG2; settings: HepG2, 24 h incubation, tested over 1-128 μg/mL, read-out: IC50 values against HepG2
Method: Compounds are assessed for potential non-specific cytotoxic effects against a human hepatic cell line (HepG2 ATCC HB-8065). HepG2 cells are seeded at 20,000 cells/well in 96-well microtitre plates in minimal essential medium (MEM) supplemented with a final concentration of 10% FBS and 1 mM sodium pyruvate. After 24 h compound dilutions are prepared in Dulbecco's minimum essential media (DMEM) supplemented with final concentrations of 0.001% FBS, 0.3% bovine albumin and 0.02% HEPES and added to cells. Compounds are tested in two-fold serial dilutions over a final concentration range of 1-128 μg/mL in a final DMSO concentration of 1% vol/vol. Chlorpromazine is used as a positive control. Cells are incubated with compound at 37° C. and 5% CO2 for a further 24 h, after which time the CellTiter-Glo reagent (Promega) is added. Luminescence is measured on a BMG Omega plate reader. Data are analysed using GraphPad Prism software to determine the concentration of compound that inhibits cell viability by fifty percent (IC50).

[2] = system: Escherichia coli ATCC 25922; test: MIC, broth microdilution, E. coli ATCC 25922; settings: ATCC25922, Table 1, wild type strain
[3] = system: Enterococcus faecium ATCC 19434; test: MIC, E. faecium ATCC 19434; settings: ATCC19434, Table 2
[4] = system: Staphylococcus aureus ATCC 29213; test: MIC, broth microdilution, S. aureus ATCC 29213
[5] = system: Haemophilus influenzae ATCC 49247; test: MIC, H. influenzae ATCC 49247; settings: ATCC49247, Table 4
[6] = ATCC29213, Table 1, wild type strain, read-out: MIC S. aureus ATCC 29213
[7] = ATCC 29213 / MSSA, Table 2, read-out: MIC S. aureus (MSSA) ATCC 29213 CLSI control strain

Row | Structure (SMILES) | IC50 [1] [µg/mL] | MIC [2] [µg/mL] | MIC [3] [µg/mL] | MIC [4, 6] [µg/mL] | MIC [4, 7] [µg/mL] | MIC [5] [µg/mL]
1 | O=C(O)c1cn(C2CC2)c2cc(N3CCNCC3)c(F)cc2c1=O [Ciprofloxacin, reference compound] | > 100 | – | – | – | – | –
2 | Cc1c(-c2ccc(N)cc2F)ccc2c3ocnc3c(=O)n(C3CC3)c12 [Compound 5, 7-(4-amino-2-fluoro-phenyl)-5-cyclopropyl-6-methyl-oxazolo[4,5-c]quinolin-4-one] | 10 to 100 (≈ 28.6 to 286 µM) | 1 to 10 (≈ 2.86 to 28.6 µM) | > 100 | < 1 | < 1 | < 1
3 | Cc1nc2c(=O)n(C3CC3)c3c(C)c(-c4ccc(C(=O)O)cc4)ccc3c2o1 [Compound 8, 4-(5-cyclopropyl-2,6-dimethyl-4-oxo-oxazolo[4,5-c]quinolin-7-yl)benzoic acid] | > 100 | > 100 | > 100 | 10 to 100 (≈ 26.7 to 267 µM) | > 100 | 1 to 10 (≈ 2.67 to 26.7 µM)
4 | Cc1nc2c(=O)n(C3CC3)c3c(C)c(-c4ccc5[nH]ncc5c4)ccc3c2o1 [Compound 10, 5-cyclopropyl-7-(1H-indazol-5-yl)-2,6-dimethyl-oxazolo{4,5-c]quinolin-4-one] | 10 to 100 (≈ 27 to 270 µM) | > 100 | > 100 | < 1 | < 1 | 10 to 100 (≈ 27 to 270 µM)
5 | Cc1c(-c2cc(F)c(N)c(F)c2)ccc2c3ocnc3c(=O)n(C3CC3)c12 [Compound 19] | 10 to 100 (≈ 27.2 to 272 µM) | > 100 | > 100 | < 1 | < 1 | 1 to 10 (≈ 2.72 to 27.2 µM)
6 | Cc1c(-c2cc(F)c(C(C)O)cc2F)ccc2c3ocnc3c(=O)n(C3CC3)c12 (stereo not shown) [Compound 22, 5-cyclopropyl-7-[2,5-difluoro-4-(1-hydroxyethyl)phenyl]-6-methyl-oxazolo[4,5-c]quinolin-4-one] | 10 to 100 (≈ 25.2 to 252 µM) | 1 to 10 (≈ 2.52 to 25.2 µM) | 10 to 100 (≈ 25.2 to 252 µM) | < 1 | < 1 | 1 to 10 (≈ 2.52 to 25.2 µM)
7 | Cc1nc2c(=O)n(C3CC3)c3cc(-c4ccncc4)c(F)cc3c2o1 [Compound 75, 5-cyclopropyl-8-fluoro-2-methyl-7-(4-pyridyl)oxazolo[4,5-c]quinolin-4-one] | – | 10 to 100 (≈ 29.8 to 298 µM) | > 100 | 1 to 10 (≈ 2.98 to 29.8 µM) | 1 to 10 (≈ 2.98 to 29.8 µM) | 1 to 10 (≈ 2.98 to 29.8 µM)
8 | CC(=O)c1cc(F)c(-c2cc3c(cc2F)c2oc(C)nc2c(=O)n3C2CC2)cc1F [Compound 77, 7-(4-acetyl-2,5-difluoro-phenyl)-5-cyclopropyl-8-fluoro-2-methyl-oxazolo[4,5-c]quinolin-4-one] | – | > 100 | > 100 | 10 to 100 (≈ 24.3 to 243 µM) | 10 to 100 (≈ 24.3 to 243 µM) | > 100
9 | Cc1nc2c(=O)n(C3CC3)c3cc(-c4cc(F)c(C(N)=O)cc4F)c(F)cc3c2o1 [Compound 78, 4-(5-cyclopropyl-8-fluoro-2-methyl-4-oxo-oxazolo[4,5-c]quinolin-7-yl)-2,5-difluoro-benzamide] | – | > 100 | > 100 | > 100 | > 100 | 10 to 100 (≈ 24.2 to 242 µM)
10 | NC1C2CN(c3nc4c(cc3F)c3ocnc3c(=O)n4C3CC3)CC12 (stereo not shown) [Compound 82, 7-(6-amino-3-azabicyclo[3.1.0]hexan-3-yl)-5-cyclopropyl-8-fluoro-oxazolo[4,5-c][1,8]naphthyridin-4-one] | – | 1 to 10 (≈ 2.93 to 29.3 µM) | > 100 | 10 to 100 (≈ 29.3 to 293 µM) | 10 to 100 (≈ 29.3 to 293 µM) | 10 to 100 (≈ 29.3 to 293 µM)
11 | Nc1cc(-c2nc3c(cc2F)c2ocnc2c(=O)n3C2CC2)c(F)cc1F [Compound 85, 7-(5-amino-2,4-difluorophenyl)-5-cyclopropyl-8-fluoro-oxazolo[4,5-c]1,8-naphthyridin-4-one] | – | 10 to 100 (≈ 26.9 to 269 µM) | > 100 | 10 to 100 (≈ 26.9 to 269 µM) | 10 to 100 (≈ 26.9 to 269 µM) | 1 to 10 (≈ 2.69 to 26.9 µM)
12 | Cc1nc2c(=O)n3c4c(c(N5CCN(C)CC5)c(F)cc4c2o1)OC[C@@H]3C [Compound 91] | – | 10 to 100 (≈ 26.9 to 269 µM) | > 100 | 10 to 100 (≈ 26.9 to 269 µM) | 10 to 100 (≈ 26.9 to 269 µM) | 1 to 10 (≈ 2.69 to 26.9 µM)
13 | C[C@H]1COc2c(-c3cnc(N)nc3)ccc3c4ocnc4c(=O)n1c23 [Compound 94, (2S)-6-(2-aminopyrimidin-5-yl)-2-methyl-4,11-dioxa-1,13-diazatetracyclo[7.6.1.0^5,^16.0^10,^14]hexadeca-5(16),6,8,10(14),12-pentaen-15-one] | – | 10 to 100 (≈ 29.8 to 298 µM) | 10 to 100 (≈ 29.8 to 298 µM) | 1 to 10 (≈ 2.98 to 29.8 µM) | 1 to 10 (≈ 2.98 to 29.8 µM) | 1 to 10 (≈ 2.98 to 29.8 µM)
14 | COc1c(N2CCC(N)C2)c(F)cc2c3ocnc3c(=O)n(C3CC3)c12 (stereo not shown) [Compound 97, 7-(3-aminopyrrolidin-1-yl)-5-cyclopropyl-8-fluoro-6-methoxyoxazolo[4,5-c]quinolin-4-one] | – | 1 to 10 (≈ 2.79 to 27.9 µM) | 10 to 100 (≈ 27.9 to 279 µM) | < 1 | < 1 | 1 to 10 (≈ 2.79 to 27.9 µM)
15 | Cc1c(-c2ccc(C(=O)O)cc2)ccc2c3oc(CN)nc3c(=O)n(C3CC3)c12 [Compound 102, 4-[2-(aminomethyl)-5-cyclopropyl-6-methyl-4-oxo-oxazolo[4,5-c]quinolin-7-yl]benzoic acid] | – | > 100 | > 100 | 1 to 10 (≈ 2.57 to 25.7 µM) | 1 to 10 (≈ 2.57 to 25.7 µM) | 10 to 100 (≈ 25.7 to 257 µM)
16 | CCn1c(=O)c2ncoc2c2cc(F)c(-c3cc(F)c(N)cc3F)c(C)c21 [Compound 104, 7-(4-amino-2,5-difluoro-phenyl)-5-ethyl-8-fluoro-6-methyl-oxazolo[4,5-c]quinolin-4-one] | – | > 100 | 10 to 100 (≈ 26.8 to 268 µM) | 1 to 10 (≈ 2.68 to 26.8 µM) | 1 to 10 (≈ 2.68 to 26.8 µM) | 10 to 100 (≈ 26.8 to 268 µM)
17 | CCn1c(=O)c2ncoc2c2cc(F)c(-c3cc(N)c(F)cc3F)c(C)c21 [Compound 105, 7-(5-amino-2,4-difluoro-phenyl)-5-ethyl-8-fluoro-6-methyl-oxazolo[4,5-c]quinolin-4-one] | – | 10 to 100 (≈ 26.8 to 268 µM) | 10 to 100 (≈ 26.8 to 268 µM) | 10 to 100 (≈ 26.8 to 268 µM) | 10 to 100 (≈ 26.8 to 268 µM) | 10 to 100 (≈ 26.8 to 268 µM)
18 | CCn1c(=O)c2ncoc2c2cc(F)c(-c3ccc(N)nc3)c(C)c21 [Compound 106, 7-(6-amino-3-pyridyl)-5-ethyl-8-fluoro-6-methyl-oxazolo[4,5-c]quinolin-4-one] | – | > 100 | > 100 | 10 to 100 (≈ 29.6 to 296 µM) | 10 to 100 (≈ 29.6 to 296 µM) | 10 to 100 (≈ 29.6 to 296 µM)

Now from value to molecule:

Row | IC50 [1] [µg/mL] | MIC [2] [µg/mL] | MIC [3] [µg/mL] | MIC [4, 6] [µg/mL] | MIC [4, 7] [µg/mL] | MIC [5] [µg/mL] | Structure (SMILES)
19 | 10 to 100 (≈ 27.8 to 278 µM) | 1 to 10 (≈ 2.78 to 27.8 µM) | > 100 | < 1 | < 1 | 1 to 10 (≈ 2.78 to 27.8 µM) | Cc1nc2c(=O)n(C3CC3)c3c(C)c(-c4ccc(CN)cc4)ccc3c2o1 [Compound 9, 7-[4-{aminomethyl)phenyl]-5-cyclopropyl-2,6-dimethyl-oxazolo[4,5-c]quinolin-4-one]
20 | > 100 | > 100 | > 100 | 1 to 10 (≈ 2.1 to 21 µM) | 1 to 10 (≈ 2.1 to 21 µM) | 10 to 100 (≈ 21 to 210 µM) | Cc1nc2c(=O)n(C3CC3)c3c(C)c(-c4cnn(C5CN(C(=O)OC(C)(C)C)C5)c4)ccc3c2o1 [Compound 11, tert-butyl 3-[4-(5-cyclopropyl-2,6-dimethyl-4-oxo-oxazolo[4,5-c]quinolin-7-yl)pyrazol-1-yl]azetidine-1-carboxylate]
21 | – | 10 to 100 (≈ 28.3 to 283 µM) | > 100 | 10 to 100 (≈ 28.3 to 283 µM) | 10 to 100 (≈ 28.3 to 283 µM) | 1 to 10 (≈ 2.83 to 28.3 µM) | Cc1nc2c(=O)n(C3CC3)c3cc(-c4ccncc4F)c(F)cc3c2o1 [Compound 74, 5-cyclopropyl-8-fluoro-7-(3-fluoro-4-pyridyl)-2-methyl-oxazolo[4,5-c]quinolin-4-one]
22 | – | 1 to 10 (≈ 2.8 to 28 µM) | > 100 | 10 to 100 (≈ 28 to 280 µM) | 10 to 100 (≈ 28 to 280 µM) | 10 to 100 (≈ 28 to 280 µM) | CN(C)C1CCN(c2nc3c(cc2F)c2ocnc2c(=O)n3C2CC2)C1 (stereo not shown) [Compound 83, 5-cyclopropyl-7-[3-(dimethylamino)pyrrolidin-1-yl]-8-fluoro-oxazolo[4,5-c][1,8]naphthyridin-4-one]
23 | – | > 100 | > 100 | > 100 | 10 to 100 (≈ 25.9 to 259 µM) | 10 to 100 (≈ 25.9 to 259 µM) | Cc1nc2c(=O)n(C3CC3)c3nc(-c4cc(F)c(N)cc4F)c(F)cc3c2o1 [Compound 86, 7-(4-amino-2,5-difluorophenyl)-5-cyclopropyl-8-fluoro-2-methyl-oxazolo[4,5-c]1,8-naphthyridin-4-one]
24 | – | > 100 | > 100 | > 100 | 10 to 100 (≈ 26.6 to 266 µM) | 10 to 100 (≈ 26.6 to 266 µM) | Cc1nc2c(=O)n(C3CC3)c3nc(-c4ccc5[nH]ncc5c4)c(F)cc3c2o1 [Compound 87]
25 | – | 1 to 10 (≈ 2.76 to 27.6 µM) | 10 to 100 (≈ 27.6 to 276 µM) | 1 to 10 (≈ 2.76 to 27.6 µM) | 1 to 10 (≈ 2.76 to 27.6 µM) | < 1 | Cc1c(-c2cnc(N)nc2)ccc2c3oc(CN)nc3c(=O)n(C3CC3)c12 [Compound 103, 2-(aminomethyl)-7-(2-aminopyrimidin-5-yl)-5-cyclopropyl-6-methyl-oxazolo[4,5-c]quinolin-4-one]
26 | – | > 100 | > 100 | 10 to 100 (≈ 28.1 to 281 µM) | 10 to 100 (≈ 28.1 to 281 µM) | > 100 | CCn1c(=O)c2ncoc2c2cc(F)c(-c3ccc(N)c(F)c3)c(C)c21 [Compound 107, 7-(4-amino-3-fluoro-phenyl)-5-ethyl-8-fluoro-6-methyl-oxazolo[4,5-c]quinolin-4-one]
